{"source": "patent US20040058957A1", "about": "“Benzothiophene derivatives and herbicidal compositions containing the same” (priority 2000, published 2004)", "format_in_all_cases": "in vivo", "conditions_in_all_cases": "rated 30 days after application", "key": {"Scirpus juncoides [1]": {"tested_on": "Scirpus juncoides", "assay": "Submersion test, treatment 3 days after transplantation: herbicidal effect", "experimental": "(§1) A mixture consisting of 57 parts by weight of talc and 40 parts by weight of bentonite as carrier and 3 parts by weight of sodium alkylbenzenesulfonate as surfactant was pulverized and mixed uniformly to obtain a carrier for wettable powder. Each herbicidal composition was prepared by uniformly pulverizing and mixing 90 parts by weight of the carrier for wettable powder and 10 parts by weight of the benzothiophene derivative produced in each example.\n(§2) Seeds of Scirpus juncoides were sowed onto paddy field soil in a Wagner pot of 1/2000 are. Then, rice seedlings of 2.5 leaf stage were transplanted in the soil. Water was pored into the pot so as to submerge the soil at a depth of 3 cm. The pot was placed in a greenhouse maintained at 20 to 25° C. for vegetation. After 3 days from transplantation of the rice seedlings, a predetermined amount of the herbicidal composition prepared in the step [1] was applied to the pot. After 30 days from the application of the herbicidal composition, the herbicidal effect and injury to the paddy rice were determined.\n(§3) The herbicidal effect and the injury to crops in the above tests (1) and (2) were evaluated based on the following ratings.\n(§4) The degree of weed control (%) was calculated from the weights of the above-ground parts of fresh weeds in the treated area and the untreated area using the following equation:\n(§5) Degree of weed control (%)=[1−(weight of weeds in treated area)/(weight of weeds in untreated area)]×100\n(§6) The herbicidal effect was determined according to the following ratings: […]"}, "paddy rice": {"tested_on": "paddy rice", "assay": "Submersion test, treatment 3 days after transplantation: injury to paddy rice", "parameters": "key: 0: No injury; 1: Substantially no injury; 2: Slight injury; 3: Some injury; 4: Remarkable injury; 5: Almost all crops dead", "experimental": "A mixture consisting of 57 parts by weight of talc and 40 parts by weight of bentonite as carrier and 3 parts by weight of sodium alkylbenzenesulfonate as surfactant was pulverized and mixed uniformly to obtain a carrier for wettable powder. […] Then, rice seedlings of 2.5 leaf stage were transplanted in the soil. Water was pored into the pot so as to submerge the soil at a depth of 3 cm. The pot was placed in a greenhouse maintained at 20 to 25° C. for vegetation. […] After 30 days from the application of the herbicidal composition, the herbicidal effect and injury to the paddy rice were determined. […] The injury to crops was evaluated according to the following ratings: [table]"}, "Scirpus juncoides [2]": {"tested_on": "Scirpus juncoides", "assay": "Submersion test, treatment 10 days after transplantation: herbicidal effect", "experimental": "as §1\nas §2, with “vegetation. After 10 days from” for “vegetation. After 3 days from”\nas §3, §4, §5, §6"}}}
{"smiles": "CO/N=C/CSC1Cc2c(ccc(C(=O)C3C(=O)CCCC3=O)c2Cl)S1(=O)=O", "note": "(single isomer, unassigned) [Compound No. 8, 4-chloro-2-(2-methoxyiminoethyl)thio-5-(1,3-dioxocyclohex-2-yl)carbonyl-2,3-dihydrobenzothiophene 1,1-dioxide]", "values": [{"measurement": "Herbicidal effect Scirpus juncoides", "setting": "Scirpus juncoides [1]; application rate 100 g/ha", "value": "4 (70% or higher but less than 90%)"}, {"measurement": "Herbicidal effect Scirpus juncoides", "setting": "Scirpus juncoides [1]; application rate 200 g/ha", "value": "5 (90% or higher (almost completely dead))"}, {"measurement": "Injury paddy rice", "setting": "paddy rice; application rate 100 g/ha", "value": 0}, {"measurement": "Injury paddy rice", "setting": "paddy rice; application rate 200 g/ha", "value": 0}, {"measurement": "Herbicidal effect Scirpus juncoides", "setting": "Scirpus juncoides [2]; application rate 100 g/ha", "value": "5 (90% or higher (almost completely dead))"}, {"measurement": "Herbicidal effect Scirpus juncoides", "setting": "Scirpus juncoides [2]; application rate 200 g/ha", "value": "5 (90% or higher (almost completely dead))"}]}
{"smiles": "C[S+]([O-])C1Cc2c(ccc(C(=O)C3=C(Cl)CCCC3=O)c2Cl)S1(=O)=O", "note": "(single isomer, unassigned) [Compound No. 28, 4-chloro-2-methanesulfinyl-5-(3-chloro-1-oxo-2-cyclohexen-2-yl)carbonyl-2,3-dihydrobenzothiophene 1,1-dioxide]", "values": [{"measurement": "Herbicidal effect Scirpus juncoides", "setting": "Scirpus juncoides [1]; application rate 100 g/ha", "value": "5 (90% or higher (almost completely dead))"}, {"measurement": "Herbicidal effect Scirpus juncoides", "setting": "Scirpus juncoides [1]; application rate 200 g/ha", "value": "5 (90% or higher (almost completely dead))"}, {"measurement": "Injury paddy rice", "setting": "paddy rice; application rate 100 g/ha", "value": 0}, {"measurement": "Injury paddy rice", "setting": "paddy rice; application rate 200 g/ha", "value": 0}, {"measurement": "Herbicidal effect Scirpus juncoides", "setting": "Scirpus juncoides [2]; application rate 100 g/ha", "value": "5 (90% or higher (almost completely dead))"}, {"measurement": "Herbicidal effect Scirpus juncoides", "setting": "Scirpus juncoides [2]; application rate 200 g/ha", "value": "5 (90% or higher (almost completely dead))"}]}
{"smiles": "CS(=O)(=O)c1ccc(C(=O)C2=C(Sc3ccccc3)C3CCC(C3)C2=O)c(Cl)c1", "note": "(stereo not drawn) [(B), reference compound]", "values": [{"measurement": "Herbicidal effect Scirpus juncoides", "setting": "Scirpus juncoides [1]; application rate 100 g/ha", "value": "3 (40% or higher but less than 70%)"}, {"measurement": "Herbicidal effect Scirpus juncoides", "setting": "Scirpus juncoides [1]; application rate 200 g/ha", "value": "4 (70% or higher but less than 90%)"}, {"measurement": "Injury paddy rice", "setting": "paddy rice; application rate 100 g/ha", "value": 0}, {"measurement": "Injury paddy rice", "setting": "paddy rice; application rate 200 g/ha", "value": 0}, {"measurement": "Herbicidal effect Scirpus juncoides", "setting": "Scirpus juncoides [2]; application rate 100 g/ha", "value": "2 (20% or higher but less than 40%)"}, {"measurement": "Herbicidal effect Scirpus juncoides", "setting": "Scirpus juncoides [2]; application rate 200 g/ha", "value": "3 (40% or higher but less than 70%)"}]}
{"smiles": "CCSC1Cc2c(ccc(C(=O)C3C(=O)CCCC3=O)c2Cl)S1(=O)=O", "note": "(stereo not drawn) [Compound No. 2, 4-chloro-2-ethylthio-5-(1,3-cdioxocyclohex-2-yl)carbonyl-2,3-cdihydrobenzothiophene 1,1-dioxide]", "values": [{"measurement": "Herbicidal effect Scirpus juncoides", "setting": "Scirpus juncoides [1]; application rate 100 g/ha", "value": "5 (90% or higher (almost completely dead))"}, {"measurement": "Herbicidal effect Scirpus juncoides", "setting": "Scirpus juncoides [1]; application rate 200 g/ha", "value": "5 (90% or higher (almost completely dead))"}, {"measurement": "Injury paddy rice", "setting": "paddy rice; application rate 100 g/ha", "value": 0}, {"measurement": "Injury paddy rice", "setting": "paddy rice; application rate 200 g/ha", "value": 0}, {"measurement": "Herbicidal effect Scirpus juncoides", "setting": "Scirpus juncoides [2]; application rate 100 g/ha", "value": "5 (90% or higher (almost completely dead))"}, {"measurement": "Herbicidal effect Scirpus juncoides", "setting": "Scirpus juncoides [2]; application rate 200 g/ha", "value": "5 (90% or higher (almost completely dead))"}]}
{"smiles": "COCCSC1Cc2c(ccc(C(=O)C3C(=O)CCCC3=O)c2Cl)S1(=O)=O", "note": "(stereo not drawn) [Compound No. 5, 4-chloro-2-(2-methoxyethyl)thio-5-(1,3-dioxocyclohex-2-yl)carbonyl-2,3-dihydrobenzothiophene 1,1-dioxide]", "values": [{"measurement": "Herbicidal effect Scirpus juncoides", "setting": "Scirpus juncoides [1]; application rate 100 g/ha", "value": "5 (90% or higher (almost completely dead))"}, {"measurement": "Herbicidal effect Scirpus juncoides", "setting": "Scirpus juncoides [1]; application rate 200 g/ha", "value": "5 (90% or higher (almost completely dead))"}, {"measurement": "Injury paddy rice", "setting": "paddy rice; application rate 100 g/ha", "value": 0}, {"measurement": "Injury paddy rice", "setting": "paddy rice; application rate 200 g/ha", "value": 0}, {"measurement": "Herbicidal effect Scirpus juncoides", "setting": "Scirpus juncoides [2]; application rate 100 g/ha", "value": "5 (90% or higher (almost completely dead))"}, {"measurement": "Herbicidal effect Scirpus juncoides", "setting": "Scirpus juncoides [2]; application rate 200 g/ha", "value": "5 (90% or higher (almost completely dead))"}]}
{"smiles": "CS(=O)(=O)C1Cc2c(ccc(C(=O)C3C(=O)CCCC3=O)c2Cl)S1(=O)=O", "note": "(stereo not drawn) [Compound No. 15, 4-chloro-2-methanesulfonyl-5-(1,3-dioxocyclohex-2-yl)carbonyl-2,3-dihydrobenzothiophene 1,1-dioxide]", "values": [{"measurement": "Herbicidal effect Scirpus juncoides", "setting": "Scirpus juncoides [1]; application rate 100 g/ha", "value": "5 (90% or higher (almost completely dead))"}, {"measurement": "Herbicidal effect Scirpus juncoides", "setting": "Scirpus juncoides [1]; application rate 200 g/ha", "value": "5 (90% or higher (almost completely dead))"}, {"measurement": "Injury paddy rice", "setting": "paddy rice; application rate 100 g/ha", "value": 0}, {"measurement": "Injury paddy rice", "setting": "paddy rice; application rate 200 g/ha", "value": 0}, {"measurement": "Herbicidal effect Scirpus juncoides", "setting": "Scirpus juncoides [2]; application rate 100 g/ha", "value": "4 (70% or higher but less than 90%)"}, {"measurement": "Herbicidal effect Scirpus juncoides", "setting": "Scirpus juncoides [2]; application rate 200 g/ha", "value": "5 (90% or higher (almost completely dead))"}]}
